Patent US20130210042A1, “DIAGNOSTIC AND PROGNOSTIC METHOD FOR HUMAN TAUOPATHIES” (CONSIGLIO NAZIONALE DELLE RICERCHE, priority 2010, published 2013)
Like-named read-outs stand apart in the source and are kept apart here. Peptide text beside a SMILES is read from it. * marks the point of attachment. Cbz = O=C(OCc1ccccc1)*; CH2F = FC*

What was measured:
[1] = system: AD patients; settings: cited from earlier work
[2] = system: dbAMPc/NGF-differentiated human SH-SY5Y human neuroblastoma cells; experiment: Generation of the 20-22 kDa NH2 tau fragment in differentiated SH-SY5Y exposed to soluble AD brain extracts (Western blot); assay type: cell-based; settings: 12 h with 1 mg/ml AD brain extract
Excerpt: FIG. 5. The soluble extracts from AD brain homogenates containing Aβ oligomers induce neurotoxicity and production of the NH2-derived 20-22 kDa tau fragment through the caspase-(s) activation in human differentiated SY5Y. A-B): Biochemical characterization of native Aβ oligomers enriched by crude soluble proteins extracts of AD and age-matched non-demented control brain prepared as reported by, which contained almost no Aβ monomers since the ability of these low-molecular weight species to pass readily through the 10 kDa cutoff filters under the conditions used here. Samples extracted from two different AD brain specimens were pooled and retentates—obtained by 10 kDa cutoff filters (Vivaspin 4 VSO403)—were added to the cell culture at a final concentration of 1 mg/ml. […] Unheated samples were applied on the gel in two different lanes and after transfer the membrane was cut in two equal parts and analyzed in parallel. […] Each data point is the mean±SE (bars) of five independent experiments and statistically significant differences were calculated by paired t-Student's test (*p<0.05; ***p<0.001). […] Each data point is the mean±SE (bars) of three independent experiments and statistically significant differences were calculated by paired t-Student's test (*p<0.05; **p<0.01; ***p<0.001). […]

[3] = system: adenine nucleotide translocator (ANT-1); settings: in vitro; cited from earlier work
[4] = system: neuronal mitochondria; settings: cited from earlier work; for intracellular ATP bioavailability: ATP synthesized by neuronal mitochondria
[5] = target: T1, 20-22 kDa NH2-truncated tau fragment (human, UniProt P10636 26-547); experiment: co-immunoprecipitation from synaptosomes with CCP-NH2 tau as bait antibody
T1 construct: Endogenous fragment in human synaptosomes, mitochondria, CSF and STS-treated SH-SY5Y cells; Exact limits not proven; also called NH2htau; NH2 htau fragment
T1 sequence (P10636 other isoform, or with tags, fused parts or gaps limits assumed): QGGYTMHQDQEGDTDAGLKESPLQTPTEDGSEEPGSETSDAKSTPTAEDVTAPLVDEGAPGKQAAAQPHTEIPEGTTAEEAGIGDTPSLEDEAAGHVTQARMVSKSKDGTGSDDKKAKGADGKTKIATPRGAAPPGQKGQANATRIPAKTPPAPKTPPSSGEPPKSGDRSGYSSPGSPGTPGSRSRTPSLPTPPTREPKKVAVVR
Description: A): Western blotting comparing synaptosomal proteins (500 μg) from ND, AD (ND, AD) subjects immunoprecipitated (IP) and probed (WB) with CCP—NH₂ tau (NH₂ aa 26-36 of human tau) antiserum. Total proteins extracts (70 μg unbound) from STS-treated (6hSY5Y) neuronal human SY5Y and from AD synaptosomal proteins (INPUT) were also loaded for lane and included as positive internal control of electrophoretic mobility and immunoprecipitation efficiency. It is noteworthy that a NH₂-tau fragment around 20-22 kDa (arrow), but not-full-length proteins running at 55-75 kDa(arrowheads), was efficiently immunoprecipitated by CCP—NH₂ tau antiserum on synaptic-enriched fractions from AD. The asterisk indicate immunoglobulin light chains in immunoprecipitates and no significant cross-reactions with human intact tau iso forms was found in total, un-precipitated proteins. B-F): In C), Western blotting analysis comparing synaptosomal proteins (500 μg) from ND, AD (ND, AD) subjects immunoprecipitated (IP) with CCP—NH₂ tau (NH₂ aa26-36 of human tau) antiserum and probed (WB) with ANT-1 antibody (the least C-terminal 12 amino acids of human neuronal ANT-1). […]
Next the authors analyzed whether ANT-1—the neuronal-specific isoform of ANT protein—was a mitochondrial target of the NH₂htau fragment.

**Q.** Which “duration of improved cognitive performance in AD patients” value [1] does the source give for `Cc1ccc2c(c1)c1c(n2CCc2ccc(C)nc2)CCN(C)C1` [Dimebon] here?
**A.** 12-18 months

**Q.** Which “appearance of 20-22 kDa NH2 tau fragment after pre-incubation with protease inhibitor” value ([2]; 100 μM Z-VADfmk or 20 μM MDL28170) does the source give for `COC(=O)C[C@H](NC(=O)[C@H](C)NC(=O)[C@@H](NC(=O)OCc1ccccc1)C(C)C)C(=O)CF` [Z-VADfmk] (Cbz-Val-Ala-Asp(OMe)-CH2F) here?
**A.** significantly reduced the appearance of 20-22 kDa NH2 tau fragment

**Q.** What about the “caspase-3 activation (cleaved caspase-3 Western blot)” value ([2]; 100 μM Z-VADfmk) of the same molecule?
**A.** blocking the caspase-3 activation

**Q.** Which results are given for “NH2-26-44 peptide: synthesized NH2-26-44 tau peptide, minimal active moiety of the NH2-26-230 human tau fragment (QGGYTMHQDQEGDTDAGLK)”?
**A.** ANT-1-mediated ADP/ATP exchange [3]: specifically inhibited the ANT-1-mediated ADP/ATP exchange in a non-competitive manner; intracellular ATP bioavailability [4]: reduces the intracellular ATP bioavailability; intracellular ATP bioavailability ([4]; listed as NH226-44 tau): reduced the intracellular bioavailability of ATP; mitochondrial oxidative phosphorylation ([4]; in vitro): impairs the mitochondrial oxidative phosphorylation

B1: MnSOD-II (enzyme, human, UniProt P04179 25-222, looked up)
chain: KHSLPDLPYDYGALEPHINAQIMQLHHSKHHAAYVNNLNVTEEKYQEALAKGDVTAQIALQPALKFNGGGHINHSIFWTNLSPNGGGEPKGELLEAIKRDFGSFDKFKEKLTAASVGVQGSGWGWLGFNKERGHLQIAACPNQDPLQGTTGLIPLLGIDVWEHAYYLQYKNVRPDYLKAIWNVINWENVTERYMACKK
notes: also called mitochondrial superoxide dismutase
**Q.** Does B1 bind [5]?
**A.** no binding
